Results: patent US9650382B2, “Heteroarylamide derivatives having antiandrogenic properties” (MEDEIA THERAPEUTICS LTD, priority 2012, dated 2017)
Substitutions are numbered along the chain they refer to.

Key:
Format in all cases: cell-based
WT AR = target: T1, WT AR (Homo sapiens, UniProt P10275); assay: Antagonism in WT AR, AR transactivation reporter gene assay (COS-1 cells, or INDIGO Human AR Reporter Assay System), competitive setting with reference agonist; details: for Relative LUC activity (%) indicating residual androgen activity in relation to reference agonist (100%): competitive setting with reference agonist (50 nM testosterone or 400 pM FIT); for activity at 1 µM / activity at 10 µM: COS-1, read-out: Relative LUC activity (%) indicating residual androgen activity in relation to reference agonist (100%)
T1 construct: expressed in transfected cells; host or cells: COS-1 cells (transient transfection); alternatively non-human mammalian cells of the INDIGO Biosciences Human AR Reporter Assay System
T1 sequence (P10275 1-920): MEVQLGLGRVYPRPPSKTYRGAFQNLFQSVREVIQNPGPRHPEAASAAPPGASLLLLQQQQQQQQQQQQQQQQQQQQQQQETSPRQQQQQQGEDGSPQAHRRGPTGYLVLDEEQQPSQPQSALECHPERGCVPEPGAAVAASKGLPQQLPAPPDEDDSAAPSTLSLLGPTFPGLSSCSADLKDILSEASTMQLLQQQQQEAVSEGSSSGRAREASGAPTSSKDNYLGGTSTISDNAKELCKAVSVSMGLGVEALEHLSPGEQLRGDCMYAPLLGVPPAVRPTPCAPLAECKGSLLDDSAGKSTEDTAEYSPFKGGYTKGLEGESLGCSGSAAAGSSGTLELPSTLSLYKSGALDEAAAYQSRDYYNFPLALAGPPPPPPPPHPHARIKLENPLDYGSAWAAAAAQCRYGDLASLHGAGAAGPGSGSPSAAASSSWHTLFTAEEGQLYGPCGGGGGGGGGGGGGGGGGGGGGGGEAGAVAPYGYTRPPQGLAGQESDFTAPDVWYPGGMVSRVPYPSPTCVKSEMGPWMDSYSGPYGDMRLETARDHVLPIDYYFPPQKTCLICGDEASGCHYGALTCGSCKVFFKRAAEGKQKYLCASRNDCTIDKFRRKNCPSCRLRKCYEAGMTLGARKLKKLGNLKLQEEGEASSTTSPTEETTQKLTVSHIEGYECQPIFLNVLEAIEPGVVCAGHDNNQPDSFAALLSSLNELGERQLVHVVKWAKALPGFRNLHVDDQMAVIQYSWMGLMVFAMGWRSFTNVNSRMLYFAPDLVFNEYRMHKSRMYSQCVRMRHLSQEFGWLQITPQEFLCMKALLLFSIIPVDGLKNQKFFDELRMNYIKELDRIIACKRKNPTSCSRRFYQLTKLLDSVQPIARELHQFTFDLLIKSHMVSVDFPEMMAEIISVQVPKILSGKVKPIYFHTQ
Experimental: After 18 h, reporter gene activities (LUC and beta-galactosidase) were determined according to standard methods. The data are expressed as relative LUC activity (luciferase light units divided by beta-galactosidase A420nm to control for transfection efficiency) of a given compound in relation to the activity of a reference test item (=100%).
Alternatively, commercial Human AR Reporter Assay System (INDIGO Biosciences) was used. In this assay, non-human mammalian cells are engineered to express human WT AR together with LUC reporter gene linked to AR-responsive promoter. 400 pM 6-alpha-FI testosterone, FIT, was used as a reference agonist in a competitive setting.
Antagonism in WT AR of compounds of the present invention was measured in AR transactivation assay in COS-1 cells in competitive setting using testosterone as a reference agonist as described above. Alternatively INDIGO Bioscience's Human AR Reporter Assay System was utilized. […] Relative LUC activity representing AR-dependent transcription obtained by exposure to reference agonist alone was set to 100%.

T877A AR = target: T2, T877A AR (Homo sapiens, UniProt P10275, T878A); assay: Agonism in T877A mutant AR, AR transactivation assay in COS-1 cells, test compounds alone; details: 10 microM; compound alone
T2 construct: expressed in transfected cells; host or cells: COS-1 cells
T2 sequence (P10275 1-920 T878A): T1 sequence (P10275 1-920) with T878A
Experimental: (§1) COS-1 cells (American Type Culture Collection, ATCC) were cultured in Dulbecco's Modified Eagle Medium (DMEM) supplemented with 10% fetal bovine serum (FBS), penicillin (6.25 U/ml) and streptomycin (6.25 μg/ml) and seeded onto 48-well plates (50 000 cells/well) one day before transfection. Transfection media containing 2.5% charcoal-stripped FBS in DMEM was changed on cells 4 h prior to transfection. Cells were transfected with 50 ng of luciferase (LUC) reporter gene plasmid (pPB-286/+32-LUC; PB, probasin promoter), 5 ng of AR expression plasmid (pSG5-hAR), and 5 ng of pCMVβ (an internal, beta-galactosidase control for transfection efficiency and cell growth) using TransIT-LT1 reagent (Mirus Bio Corporation) according to the manufacturer's instructions. […] After 18 h, reporter gene activities (LUC and beta-galactosidase) were determined according to standard methods. The data are expressed as relative LUC activity (luciferase light units divided by beta-galactosidase A420nm to control for transfection efficiency) of a given compound in relation to the activity of a reference test item (=100%).
Agonism in T877A AR of compounds of the present invention was measured in AR transactivation assay in COS-1 cells as described above except that AR expression vector harboring the T877A mutation was used. The transfected cells were exposed to test compounds alone. Testosterone was used as reference agonist, and its' relative LUC activity representing AR-dependent transcription was set to 100%.

W741L AR = target: T3, W741L AR (Homo sapiens, UniProt P10275, W742L); assay: Agonism in W741L mutant AR, AR transactivation assay in COS-1 cells, test compounds alone; details: 10 microM; compound alone
T3 construct: expressed in transfected cells; host or cells: COS-1 cells
T3 sequence (P10275 1-920 W742L): T1 sequence (P10275 1-920) with W742L
Experimental: as §1
Agonism in W741L AR of compounds of the present invention was measured in AR transactivation assay in COS-1 cells as described above except that AR expression vector harboring the W741L mutation was used instead of the WT AR. The transfected cells were exposed to test compounds alone.

| Compound | Relative LUC activity (%) indicating residual androgen activity in relation to reference agonist (100%) (WT AR; 1 microM compound) [%] | Relative LUC activity (%) indicating residual androgen activity in relation to reference agonist (100%) (WT AR; 10 microM compound) [%] | Relative LUC activity (%) in T877A AR in relation to testosterone (100%) (T877A AR) [%] | Relative LUC activity (%) in W741L AR in relation to BIC (100%) (W741L AR) [%] | activity at 1 µM (WT AR) [%] | activity at 10 µM (WT AR) [%] |
| --- | --- | --- | --- | --- | --- | --- |
| CC(C)CCS(=O)(=O)CC(O)(C(=O)Nc1ccc(C#N)c(C(F)(F)F)c1)c1ccc(Cl)nc1 (stereo not shown) [Example 6, 2-(6-chloropyridin-3-yl)-N-[4-cyano-3-(trifluoromethyl)phenyl]-2-hydroxy-3-[(3-methylbutane)sulfonyl]propanamide] | 28 | 7 | 4 | 31 | – | – |
| CC(C)S(=O)(=O)CC(O)(C(=O)Nc1ccc(C#N)c(C(F)(F)F)c1)c1ccc(Cl)nc1 (stereo not shown) [Example 12, 2-(6-chloropyridin-3-yl)-N-[4-cyano-3-(trifluoromethyl)phenyl]-2-hydroxy-3-(propane-2-sulfonyl)propanamide] | – | – | 4 | 3 | 30 | 5 |
| N#Cc1ccc(NC(=O)C(O)(CS(=O)(=O)c2ccc(Cl)cc2)c2ccc(Cl)nc2)cc1Cl (stereo not shown) [Example 9, N-(3-chloro-4-cyanophenyl)-3-[(4-chlorobenzene)sulfonyl]-2-(6-chloropyridin-3-yl)-2-hydroxypropanamide] | 25 | 13 | 3 | 23 | – | – |
| N#Cc1ccc(NC(=O)C(O)(CS(=O)(=O)Cc2ccc(Cl)cc2)c2ccc(Cl)nc2)cc1Cl (stereo not shown) [Example 8, N-(3-chloro-4-cyanophenyl)-3-{[(4-chlorophenyl)methane]sulfonyl}-2-(6-chloropyridin-3-yl)-2-hydroxypropanamide] | 32 | 4 | 2 | 4 | – | – |
| N#Cc1ccc(NC(=O)C(O)(CS(=O)(=O)c2ccc(F)cc2)c2ccc(C(F)(F)F)nc2)cc1Cl (stereo not shown) [Example 15, N-(3-chloro-4-cyanophenyl)-3-(4-fluorobenzenesulfonyl)-2-hydroxy-2-[6-(trifluoromethyl)pyridin-3-yl]propanamide] | – | – | – | – | 25 | 3 |
| CCS(=O)(=O)CC(O)(C(=O)Nc1ccc(C#N)c(C(F)(F)F)c1)c1ccc(Cl)nc1 (stereo not shown) [Example 1, 2-(6-chloropyridin-3-yl)-N-[4-cyano-3-(trifluoromethyl)phenyl]-3-(ethanesulfonyl)-2-hydroxypropanamide] | – | – | 13 | 6 | 37 | 8 |
